Results from US12295997B2, “Prostate neoantigens and their uses” (Janssen Biotech, Inc., priority 2020, dated 2025).

System: CD8+ and CD4+ T cells (autologous CD3+ Pan-T cells isolated from human normal PBMCs)
Assay: Exogenous autologous normal donor restimulation assay (15-mer overlapping peptide pools on CD1c+ dendritic cells, TNFα/IFNγ flow cytometry)
Format: cell-based
Conditions: 15-mer overlapping peptide pool; for Maximum Fold Change Over Background CD4+ cells / Maximum Fold Change Over Background CD8+ cells / Maximum Frequency of TNFα/IFNγ Double Positive CD4+ T cells / Maximum Frequency of TNFα/IFNγ Double Positive CD8+ T cells: Table 25; for Maximum Fold Change Over Background CD4+ cells: TNFα+IFNγ+ CD4+ T cells; for Maximum Fold Change Over Background CD4+ cells / Maximum Fold Change Over Background CD8+ cells: highest fold change over negative control across normal donors; for Maximum Fold Change Over Background CD8+ cells: TNFα+IFNγ+ CD8+ T cells; for Maximum Frequency of TNFα/IFNγ Double Positive CD4+ T cells / Maximum Frequency of TNFα/IFNγ Double Positive CD8+ T cells: highest frequency across normal donors
Method in brief: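 Autologous CD3+ Pan-T cells from normal donors were co-cultured 12 days with irradiated CD1c+ DCs pulsed with 15-mer overlapping neoantigen peptide pools at 2.5–10 μg/mL, with IL-15 and IL-2 support. Cells were restimulated on day 11, then TNFα/IFNγ double-positive CD8+ and CD4+ frequencies read by flow. Positive means ≥3-fold over DMSO and ≥0.01%.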

[1] = Table 28, additional neoantigens, highest across normal donors

SLYHREKQLIAMDSAI (listed as Homo sapiens) [Neoantigen P22]
Maximum Fold Change Over Background CD4+ cells: 18.16 | Maximum Fold Change Over Background CD8+ cells: 1.56 | Maximum Frequency of TNFα/IFNγ Double Positive CD4+ T cells: 0.075 | Maximum Frequency of TNFα/IFNγ Double Positive CD8+ T cells: 0.025

YEAGMTLGEKFRVGNCKHLKMTRP (listed as Homo sapiens) [Neoantigen P82]
Maximum Fold Change Over Background CD4+ cells: 4.44 | Maximum Fold Change Over Background CD8+ cells: 2.92 | Maximum Frequency of TNFα/IFNγ Double Positive CD4+ T cells: 0.17 | Maximum Frequency of TNFα/IFNγ Double Positive CD8+ T cells: 0.09

YEAGMTLGGKILFFLFLLLPLSPFSLIF (listed as Homo sapiens) [Neoantigen P87]
Maximum Fold Change Over Background CD4+ cells: 7.86 | Maximum Fold Change Over Background CD8+ cells: 9.20 | Maximum Frequency of TNFα/IFNγ Double Positive CD4+ T cells: 0.110 | Maximum Frequency of TNFα/IFNγ Double Positive CD8+ T cells: 0.460

B1: P19 (peptide, listed as Homo sapiens)
chain: WTPIPVLTRWPLPHPPPWRRATSCRMARSSPSATSGSSVRRRCSSLPSWVWNLAASTRPRSTPS
Max. Fold Change over background CD4+ TNFαINFγ double positive DP [1]: 6.67 | Max. Fold Change over background CD8+ TNFαINFγ double positive DP [1]: 4.76 | Max. Frequency of CD4+ TNFαINFγ DP [1]: 0.16 | Max. Frequency of CD8+ TNFαINFγ DP [1]: 0.15
